Patent publication US20220265629A1, “TREATMENT OF SYSTOLIC DYSFUNCTION AND HEART FAILURE WITH REDUCED EJECTION FRACTION WITH THE COMPOUND (R)-4-(1-((3-(DIFLUOROMETHYL)-1-METHYL-1H-PYRAZOL-4-YL)SULFONYL)-1-FLUOROETHYL)-N-(ISOXAZOL-3-YL)PIPERIDINE-1-CARBOXAMIDE” (MyoKardia, Inc., priority 2019, published 2022)
Read-outs that look alike come from different tables or passages of the source.

Test: Food effect cross-over study, 200 mg (25 mg tablets), healthy volunteers: plasma pharmacokinetics
Assay type: in vivo, human
Settings: for Plasma concentration, Geometric Mean / Plasma concentration, Mean / Plasma concentration, Median: Predose; for concentration at 1 h / concentration at 2 h / concentration at 3 h / concentration at 4 h / concentration at 5 h / concentration at 6 h / concentration at 9 h / concentration at 12 h / concentration at 18 h / concentration at 24 h / concentration at 36 h: human, plasma, oral; for concentration at 1 h: 1 hour postdose; for concentration at 2 h: 2 hours postdose; for concentration at 3 h: 3 hours postdose; for concentration at 4 h: 4 hours postdose; for concentration at 5 h: 5 hours postdose; for concentration at 6 h: 6 hours postdose; for concentration at 9 h: 9 hours postdose; for concentration at 12 h: 12 hours postdose; for concentration at 18 h: 18 hours postdose; for concentration at 24 h: 24 hours postdose; for concentration at 36 h: 36 hours postdose
From the text: This example describes a clinical study for establishing, in healthy volunteers, the effect of a high fat, high caloric meal on the PK profile of Compound I, as compared to administration of the drug in the fasted state. The study also was intended to determine the safety and tolerability after a single oral dose of Compound I in the fed and fasted state in healthy volunteers. The measurements of PK, PD, and other clinical parameters were done as described in Example 1 above.
This study was an open-label, randomized, two-period cross-over study in healthy volunteers aged 18-55 years. Subjects were screened up to 28 days before the first treatment period. Subjects were admitted to the clinical site on Day −1 (the day before dosing) of Period 1. Approximately half of the subjects randomly received a single dose of Compound I on Day 1 of the first treatment period after the ingestion of a high fat, high caloric breakfast, and the remainder were closed in the fasted state. Any subject with a preclose resting HR≥95 beats per minute (bpm) was considered ineligible and was not treated. Any subjects with an acute gastrointestinal disorder which could impact drug/food absorption (e.g., vomiting, diarrhea) were rescheduled. Subjects were confined to the clinic until Day 4, and discharged after the 72-hour postclose PK and laboratory samples and vital signs were obtained. After a washout between dosing from 7 to 10 days (or, after consultation with the Investigator, up to 21 days after initial dosing if the subject was unable to attend within the 7 to 10-day window), the subject was admitted for Period 2. The sequence of fed/fasted versus fasted/fed periods was randomized. Subjects returned after the second treatment period for a safety follow-up visit on Day 7 (±1 day).
In both treatment periods, Compound I was administered with 240 mL of water. In the fasted state, the subjects fasted for 10 hours before and for 4 hours after the administration of Compound I. Water could have been ingested up to 1 hour before and after 1 hour post dosing. In the fed state, the subjects fasted for 10 hours before and for 4 hours after the ingestion of the meal, but could have ingested water up to 1 hour before and 1 hour after dosing. In the fed state, the subjects started ingesting the high fat, high caloric meal within 30 minutes prior to Compound I administration and finished the meal within 30 minutes. The meal contained approximately 800 to 1000 calories with about 50% of the calories from fat. The meal consisted of approximately 150 calories from protein, 250 calories from carbohydrate, and 500-600 calories from fat. An example of the meal was a breakfast consisting of two eggs fried in butter, two strips of bacon, two slices of buttered toast, 4 ounces of hash brown potatoes, and 8 ounces of whole milk.
Each subject received two oral doses of 200 mg of Compound I formulated as 25 mg tablets (8 tablets) in a randomized, cross-over fashion, once in the fasted state and the other time after the ingestion of a high fat, high caloric breakfast. There was a washout of between 7 and 21 days between the administrations of the two closes. The Compound I drug substance was a crystalline, free-base, synthetic molecule with a molecular weight of 435.4.
Plasma drug concentrations were measured as described in Example 1 above. Blood samples to measure Compound I plasma concentration were collected at various time points, including on Day 1 preclose (1 hour prior to dosing) and at 1 (±5 min), 2 (±5 min), 3 (±5 min), 4 (+10 min), 5 (+10 min), 6 (+10 min), 9 (+20 min), 12 (+20 min), 18 (+30 min), 24 (+30 min), 36 (+30 min), 48 (+30 min), and 72 (+30 min) hours postclose on both treatment periods.
To assess the effect of food on the PK of Compound I, the two one-sided t-test procedure was used to construct 90% CI around the geometric mean ratios (fed/fasted) of plasma AUCinf, AUClast, and Cmax. […]

[1] = Fasted, read-out: Plasma concentration, Geometric Mean
[2] = Fasted, read-out: Plasma concentration, Mean
[3] = Fasted, read-out: Plasma concentration, Median
[4] = Fed, read-out: Plasma concentration, Geometric Mean
[5] = Fed, read-out: Plasma concentration, Mean
[6] = Fed, read-out: Plasma concentration, Median

## Cn1cc(S(=O)(=O)[C@@](C)(F)C2CCN(C(=O)Nc3ccon3)CC2)c(C(F)F)n1 [Compound I, (R)-4-(1-((3-(difluoromethyl)-1-methyl-1H-pyrazol-4-yl)sulfonyl)-1-fluoroethyl)-N-(isoxazol-3-yl)piperidine-1-carboxamide]
  exposure (Cmax) higher in the fed state versus the fasted state: ~60%
N = 11
  AUCinf, Geometric Mean Ratio - Fed/Fasted: 154.28 % of Reference
  AUClast, Geometric Mean Ratio - Fed/Fasted: 154.02 % of Reference
  Cmax, Geometric Mean Ratio - Fed/Fasted: 158.11 % of Reference
Fasted
  Plasma concentration, Geometric Mean: 0.000 ng/mL
  Plasma concentration, Mean: 0.000 ng/mL
  Plasma concentration, Median: 0.000 ng/mL
Fed
  Plasma concentration, Geometric Mean: 0.000 ng/mL
  Plasma concentration, Mean: 0.092 ng/mL
  Plasma concentration, Median: 0.000 ng/mL
Fasted state
  Tmax, Median (range): 5 h
Fed state
  Tmax, Median (range): 5.5 h
[1]
  concentration at 1 h: 1180 ng/mL
  concentration at 2 h: 1780 ng/mL
  concentration at 3 h: 2090 ng/mL
  concentration at 4 h: 2190 ng/mL
  concentration at 5 h: 2270 ng/mL
  concentration at 6 h: 2170 ng/mL
  concentration at 9 h: 1970 ng/mL
  concentration at 12 h: 1720 ng/mL
  concentration at 18 h: 1290 ng/mL
  concentration at 24 h: 1070 ng/mL
  concentration at 36 h: 546 ng/mL
[2]
  concentration at 1 h: 1360 ng/mL
  concentration at 2 h: 1830 ng/mL
  concentration at 3 h: 2120 ng/mL
  concentration at 4 h: 2220 ng/mL
  concentration at 5 h: 2310 ng/mL
  concentration at 6 h: 2220 ng/mL
  concentration at 9 h: 2000 ng/mL
  concentration at 12 h: 1740 ng/mL
  concentration at 18 h: 1320 ng/mL
  concentration at 24 h: 1100 ng/mL
  concentration at 36 h: 578 ng/mL
[3]
  concentration at 1 h: 1600 ng/mL
  concentration at 2 h: 1820 ng/mL
  concentration at 3 h: 2180 ng/mL
  concentration at 4 h: 2280 ng/mL
  concentration at 5 h: 2400 ng/mL
  concentration at 6 h: 2320 ng/mL
  concentration at 9 h: 2040 ng/mL
  concentration at 12 h: 1800 ng/mL
  concentration at 18 h: 1360 ng/mL
  concentration at 24 h: 1170 ng/mL
  concentration at 36 h: 596 ng/mL
[4]
  concentration at 1 h: 916 ng/mL
  concentration at 2 h: 1470 ng/mL
  concentration at 3 h: 2000 ng/mL
  concentration at 4 h: 2610 ng/mL
  concentration at 5 h: 3040 ng/mL
  concentration at 6 h: 3140 ng/mL
  concentration at 9 h: 3050 ng/mL
  concentration at 12 h: 2780 ng/mL
  concentration at 18 h: 2030 ng/mL
  concentration at 24 h: 1660 ng/mL
[5]
  concentration at 1 h: 1320 ng/mL
  concentration at 2 h: 1920 ng/mL
  concentration at 3 h: 2340 ng/mL
  concentration at 4 h: 2810 ng/mL
  concentration at 5 h: 3150 ng/mL
  concentration at 6 h: 3200 ng/mL
  concentration at 9 h: 3080 ng/mL
  concentration at 12 h: 2840 ng/mL
  concentration at 18 h: 2080 ng/mL
  concentration at 24 h: 1720 ng/mL
[6]
  concentration at 1 h: 828 ng/mL
  concentration at 2 h: 1160 ng/mL
  concentration at 3 h: 2340 ng/mL
  concentration at 4 h: 3030 ng/mL
  concentration at 5 h: 3340 ng/mL
  concentration at 6 h: 3320 ng/mL
  concentration at 9 h: 3220 ng/mL
  concentration at 12 h: 2720 ng/mL
  concentration at 18 h: 2060 ng/mL
  concentration at 24 h: 1670 ng/mL
